Measurements reported in US4076816A, “Antibiotic mixture” (priority 1974, dated 1978).
Counter-ions that a name gives are not always drawn.

Legend:
Format in all cases: cell-based
Haemophilus influenzae = test: combined activity in vitro, serial dilutions in chocolate agar plates arranged in form of a chess board, MIC; details: compound alone
Procedure: Combined activity of FL 1060 and trimethoprim against Haemophilus influenzae in vitro. Serial dilutions of FL 1060 and trimethoprim were performed in "chocolate agar"^x) plates arranged in form of a chess board. Inoculum: 3.5 μl drops containing about 10^7 cells/ml. Incubation: overnight at 36° C. ^x) Caseinhydrolysate (pancreatic) 1.3%, dextrose 0.085%, sodium chloride 0.21%, 1-cystine 0.004%, agar (Oxoid No. 1) 0.6% in distilled water, pH 7.1 after autoclaving, horse blood (defibriated) 5%, yeast extract (Difco) 1.3% (membrane filtered) added at 80° C.

[1] = tested on: Escherichia coli (Leo HA2); test: serial dilution test (technique of Example 1), medium with addition of 10 g of sodium chloride per liter, MIC; details: medium + 10 g sodium chloride per liter, compound alone
Procedure: (§1) A fluid medium containing:
(§2) and containing the appropriate concentrations of the compounds, or of the combinations of them was inoculated with 10^6 cells/ml organisms and incubated over night at 37° C. Minimum inhibitory concentrations (MIC) were taken as the lowest concentrations of either of the compounds alone or of a combination of both at which no visible growth occurred.

[2] = tested on: Klebsiella pneumoniae (Leo HE); test: as above; details: medium + 10 g sodium chloride per liter, compound alone
Procedure: as §1, §2

[3] = tested on: Salmonella typhimurium (Leo HL2); test: as above; details: Salmonella enterica, medium + 10 g sodium chloride per liter, compound alone
Procedure: as §1, §2

[4] = tested on: Escherichia coli (strain Leo HA2); test: in vitro serial dilution test, minimum inhibitory concentration; details: 10^6 cells/ml, over night at 37° C, compound alone
Procedure: The in vitro activity of FL 1060, trimethoprim, and combinations of the two compounds against Escherichia coli (strain Leo HA2) was determined in a serial dilution test. […] Minimum inhibitory concentrations (MIC) were taken as the lowest concentrations of either of the compounds alone or of a combination of both at which no visible growth occurred.

[5] = strain IX14, overnight at 36° C
[6] = strain IX15, overnight at 36° C

Row | SMILES | MIC (Haemophilus influenzae; strain IX5, overnight at 36° C) | MIC (Haemophilus influenzae; strain IX6, overnight at 36° C) | MIC (Haemophilus influenzae; [5]) | MIC (Haemophilus influenzae; [6]) | MIC [1] | MIC [2] | MIC [3] | MIC [4]
1 | CC1(C)S[C@@H]2[C@H](N=CN3CCCCCC3)C(=O)N2[C@H]1C(=O)O [FL 1060, 6-[(hexahydro-1H-azepin-1-yl)-methyleneamino]-penicillanic acid, hydrochloride, dihydrate] | > 100 µg/mL | > 100 µg/mL | > 100 µg/mL | > 100 µg/mL | 50 µg/mL | 0.5 µg/mL | > 100 µg/mL | 0.016 µg/mL
2 | COc1cc(Cc2cnc(N)nc2N)cc(OC)c1OC [Trimethoprim, 2,4-diamino-5(3,4,5-trimethoxybenzyl)-pyrimidine] | 1 µg/mL | 3.2 µg/mL | > 100 µg/mL | > 100 µg/mL | > 50 µg/mL | 1.6 µg/mL | > 100 µg/mL | 100 µg/mL
